In PubChem BioAssay (NCI):
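Test compounds were applied to cells in 96-well plates for 48 hours at 5 doses. At the TGI there is no net growth.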

Assays:
Assay in all cases: NCI tumour cell line growth inhibition, 48 h
[1] = tested on: CCRF-CEM leukemia
[2] = tested on: NCI-H522 lung
[3] = tested on: HCT-15 colon
[4] = tested on: NCI-H460 lung
[5] = tested on: UACC-62 melanoma
[6] = tested on: ACHN renal
[7] = tested on: IGROV1 ovarian
[8] = tested on: SF-539 CNS
[9] = tested on: SK-MEL-28 melanoma
[10] = tested on: SR leukemia
[11] = tested on: SF-268 CNS
[12] = tested on: OVCAR-8 ovarian
[13] = tested on: DMS 273 small cell lung
[14] = tested on: DLD-1 colon
[15] = tested on: A498 renal
[16] = tested on: MOLT-4 leukemia
[17] = tested on: SF-295 CNS
[18] = tested on: UO-31 renal
[19] = tested on: EKVX NSCLC
[20] = tested on: SW-620 colon
[21] = tested on: HOP-62 NSCLC
[22] = tested on: RXF 393 renal
[23] = tested on: RXF-631 renal
[24] = tested on: HOP-92 NSCLC
[25] = tested on: M19-MEL melanoma
[26] = tested on: M14 melanoma
[27] = tested on: SNB-19 CNS
[28] = tested on: NCI-H226 lung
[29] = tested on: NCI-H23 lung
[30] = tested on: MALME-3M melanoma
[31] = tested on: U251 CNS
[32] = tested on: XF 498 CNS
[33] = tested on: 786-0 renal
[34] = tested on: CAKI-1 renal
[35] = tested on: SN12C renal
[36] = tested on: OVCAR-5 ovarian
[37] = tested on: OVCAR-4 ovarian
[38] = tested on: KM12 colon
[39] = tested on: SK-MEL-5 melanoma
[40] = tested on: SNB-75 CNS
[41] = tested on: A549 NSCLC
[42] = tested on: HCT-116 colon
[43] = tested on: OVCAR-3 ovarian
[44] = tested on: LXFL 529 NSCLC
[45] = tested on: LOX IMVI melanoma
[46] = tested on: SNB-78 CNS
[47] = tested on: HOP-18 NSCLC
[48] = tested on: KM20L2 colon
[49] = tested on: HCC-2998 colon
[50] = tested on: K-562 leukemia
[51] = tested on: HL-60(TB) leukemia
[52] = tested on: COLO 205 colon
[53] = tested on: HT29 colon
[54] = tested on: UACC-257 melanoma
[55] = tested on: DMS 114 small cell lung
[56] = tested on: TK-10 renal

Measured: TGI

C=CSCCC(N)C(=O)O (stereo unspecified)
> 100 µM: all assays above
